Test results from ChEMBL document CHEMBL1201862, “PubChem BioAssay data set” (2004).
Activity calls are given as the source filed them.

How the values were obtained:
[1] = biological target: Peroxisome proliferator-activated receptor gamma/Nuclear receptor corepressor 2 (Homo sapiens, UniProt P37231+Q9Y618); assay: Counterscreen for NR2E3 inverse agonists: TR-FRET-based biochemical high throughput dose response assay to identify inverse agonists of the interaction between peroxisome proliferator-activated receptor gamma (PPARg) and nuclear receptor co-repressor 2 (NCOR2).; assay type: functional
[2] = biological target: Photoreceptor-specific nuclear receptor (Homo sapiens, UniProt Q9Y5X4); assay: NR2E3 inverse agonists, dose response, biochemical, TR-FRET (AID 463256); assay type: functional
[3] = biological target: T1, Tyrosine-protein phosphatase non-receptor type 7 (Homo sapiens, UniProt P35236); assay: inhibitors of human HePTP phosphatase, […], biochemical, absorbance, leukemia target (AID 521); assay type: functional
T1 sequence (P35236 whole entry): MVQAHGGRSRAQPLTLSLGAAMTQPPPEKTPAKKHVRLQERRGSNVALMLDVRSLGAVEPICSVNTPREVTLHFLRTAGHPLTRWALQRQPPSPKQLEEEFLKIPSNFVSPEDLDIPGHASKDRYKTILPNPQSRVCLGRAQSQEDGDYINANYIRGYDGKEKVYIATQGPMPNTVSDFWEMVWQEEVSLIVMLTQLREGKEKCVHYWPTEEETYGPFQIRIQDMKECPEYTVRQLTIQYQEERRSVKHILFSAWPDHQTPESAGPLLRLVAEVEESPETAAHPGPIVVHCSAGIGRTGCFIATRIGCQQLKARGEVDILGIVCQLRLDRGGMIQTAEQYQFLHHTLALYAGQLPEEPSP

Leucine aminopeptidase = biological target: T2, Leucine aminopeptidase (Plasmodium falciparum 3D7, UniProt Q8IL11); assay: P. falciparum M17LAP inhibitors, primary screen, biochemical, fluorogenic H-Leu-NHMec substrate, 1536-well (AID 1619); assay type: functional
T2 sequence (Q8IL11 whole entry): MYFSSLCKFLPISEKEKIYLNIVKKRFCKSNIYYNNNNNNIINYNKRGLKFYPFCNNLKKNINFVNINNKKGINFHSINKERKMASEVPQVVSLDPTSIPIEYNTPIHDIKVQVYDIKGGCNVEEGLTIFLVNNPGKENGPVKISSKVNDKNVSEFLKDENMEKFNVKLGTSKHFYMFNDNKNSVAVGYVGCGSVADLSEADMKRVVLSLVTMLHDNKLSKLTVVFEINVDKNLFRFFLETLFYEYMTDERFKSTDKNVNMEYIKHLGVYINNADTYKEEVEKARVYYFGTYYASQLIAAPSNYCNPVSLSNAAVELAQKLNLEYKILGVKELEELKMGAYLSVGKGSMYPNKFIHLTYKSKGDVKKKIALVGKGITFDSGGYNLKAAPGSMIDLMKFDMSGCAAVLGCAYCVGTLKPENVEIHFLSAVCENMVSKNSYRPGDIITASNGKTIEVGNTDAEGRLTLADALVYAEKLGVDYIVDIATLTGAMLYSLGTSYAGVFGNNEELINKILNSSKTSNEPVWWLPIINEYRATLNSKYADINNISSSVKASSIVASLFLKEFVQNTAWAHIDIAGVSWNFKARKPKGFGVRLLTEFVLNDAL

Aspartyl aminopeptidase = Aspartyl aminopeptidase (Plasmodium falciparum 3D7, UniProt Q8I2J3); assay: Counterscreen for inhibitors of M1 and M17 aminopeptidases: QFRET-based biochemical high throughput dose response assay for inhibitors of the Plasmodium falciparum M18 Aspartyl Aminopeptidase (PFM18AAP). [Related PubChem assays: 1619 (Screening assay (M17LAP inhibitors).), 1445 (Screening assay (M1AAP inhibitors).)]
Procathepsin L = Procathepsin L (Homo sapiens, UniProt P07711); assay: cathepsin L inhibitors, dose response, counter-screen for M1/M17 aminopeptidase inhibitor project, biochemical, QFRET, 1536-well (AID 2214)
[4] = biological target: T3, Replicative DNA helicase DnaB (Mycobacterium tuberculosis, UniProt P9WMR3); assay: DnaB intein splicing inhibitors, dose response, biochemical, cell-free fluorescence (AID 449749); assay type: functional
T3 sequence (P9WMR3 whole entry): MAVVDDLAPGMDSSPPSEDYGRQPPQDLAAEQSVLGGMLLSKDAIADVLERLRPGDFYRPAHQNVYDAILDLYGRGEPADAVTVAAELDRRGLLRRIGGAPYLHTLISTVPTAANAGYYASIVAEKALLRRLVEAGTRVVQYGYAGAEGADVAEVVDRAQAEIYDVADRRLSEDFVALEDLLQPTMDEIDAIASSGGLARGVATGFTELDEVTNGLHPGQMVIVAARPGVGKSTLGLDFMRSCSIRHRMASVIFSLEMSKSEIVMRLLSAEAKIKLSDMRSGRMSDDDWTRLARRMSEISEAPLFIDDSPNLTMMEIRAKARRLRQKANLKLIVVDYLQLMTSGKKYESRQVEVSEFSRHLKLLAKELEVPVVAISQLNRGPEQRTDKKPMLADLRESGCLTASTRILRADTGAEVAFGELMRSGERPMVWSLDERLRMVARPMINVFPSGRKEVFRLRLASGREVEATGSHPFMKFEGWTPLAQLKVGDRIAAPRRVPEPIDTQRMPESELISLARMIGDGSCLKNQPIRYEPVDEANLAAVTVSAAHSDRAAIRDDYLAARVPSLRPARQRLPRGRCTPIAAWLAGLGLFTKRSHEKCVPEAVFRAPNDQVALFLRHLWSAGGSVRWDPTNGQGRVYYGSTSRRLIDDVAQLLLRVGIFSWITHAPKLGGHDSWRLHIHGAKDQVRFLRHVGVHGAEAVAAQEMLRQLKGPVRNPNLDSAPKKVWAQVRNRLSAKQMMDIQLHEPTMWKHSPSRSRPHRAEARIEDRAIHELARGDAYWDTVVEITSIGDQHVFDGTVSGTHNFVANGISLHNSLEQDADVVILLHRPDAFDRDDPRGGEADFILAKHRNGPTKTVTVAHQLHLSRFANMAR

Protein RecA = biological target: T4, Protein RecA (Mycobacterium tuberculosis, UniProt P9WHJ3); assay: Fluorescence Cell-Free Homogeneous Dose Retest to Identify Inhibitors of RecA-Intein Splicing Activity. [Related pubchem assays (depositor defined):AID2097, AID2223, AID489010, AID492950]; assay type: functional
T4 sequence (P9WHJ3 whole entry): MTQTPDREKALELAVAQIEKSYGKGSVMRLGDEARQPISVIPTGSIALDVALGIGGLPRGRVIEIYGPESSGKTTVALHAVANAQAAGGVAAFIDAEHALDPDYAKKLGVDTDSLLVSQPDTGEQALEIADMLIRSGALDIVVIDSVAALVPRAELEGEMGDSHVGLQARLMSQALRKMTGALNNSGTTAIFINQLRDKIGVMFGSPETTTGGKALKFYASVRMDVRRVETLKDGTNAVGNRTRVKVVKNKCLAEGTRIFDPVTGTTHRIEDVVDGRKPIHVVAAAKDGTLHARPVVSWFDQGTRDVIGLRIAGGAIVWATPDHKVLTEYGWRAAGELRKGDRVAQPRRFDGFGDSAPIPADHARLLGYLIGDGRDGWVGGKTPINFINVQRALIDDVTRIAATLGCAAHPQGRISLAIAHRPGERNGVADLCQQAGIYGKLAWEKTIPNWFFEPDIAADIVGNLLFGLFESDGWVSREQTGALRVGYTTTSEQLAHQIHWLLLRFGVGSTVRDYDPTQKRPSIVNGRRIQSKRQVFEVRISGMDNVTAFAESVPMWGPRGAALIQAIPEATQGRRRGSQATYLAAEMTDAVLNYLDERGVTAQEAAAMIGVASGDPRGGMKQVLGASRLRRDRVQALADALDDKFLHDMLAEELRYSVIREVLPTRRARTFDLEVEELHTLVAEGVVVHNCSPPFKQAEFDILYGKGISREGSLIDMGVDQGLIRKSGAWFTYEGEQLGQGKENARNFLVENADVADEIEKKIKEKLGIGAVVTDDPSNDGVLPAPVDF

Cytochrome P450 2C19 = Cytochrome P450 2C19 (Homo sapiens, UniProt P33261); assay: qHTS Assay for Inhibitors and Substrates of Cytochrome P450 2C19. [Related pubchem assays: 410 ]; assay type: ADME; details: read-out: Potency
Cytochrome P450 3A4 = Cytochrome P450 3A4 (Homo sapiens, UniProt P08684); details: Potency;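 further: confirmatory qHTS run detecting inhibitors and substrates of CYP3A4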
Sequence of Cytochrome P450 3A4 (P08684 whole entry): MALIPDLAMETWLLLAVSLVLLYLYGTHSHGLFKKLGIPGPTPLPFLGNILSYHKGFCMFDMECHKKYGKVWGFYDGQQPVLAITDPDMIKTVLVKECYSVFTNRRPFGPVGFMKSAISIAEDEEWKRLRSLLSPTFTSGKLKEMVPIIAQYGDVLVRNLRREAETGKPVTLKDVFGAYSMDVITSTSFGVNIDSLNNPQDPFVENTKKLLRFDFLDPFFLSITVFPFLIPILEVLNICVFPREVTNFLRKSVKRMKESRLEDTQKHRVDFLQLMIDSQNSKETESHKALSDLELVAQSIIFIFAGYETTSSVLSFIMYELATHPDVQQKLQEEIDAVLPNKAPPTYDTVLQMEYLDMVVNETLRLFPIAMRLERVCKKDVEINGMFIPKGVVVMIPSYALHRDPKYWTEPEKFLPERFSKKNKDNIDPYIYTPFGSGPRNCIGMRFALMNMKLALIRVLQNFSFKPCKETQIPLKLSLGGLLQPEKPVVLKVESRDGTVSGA

[5] = biological target: Voltage-gated inwardly rectifying potassium channel KCNH2 (Homo sapiens, UniProt Q12809); assay: hERG protection from proarrhythmic block, potency, dose response, cell-based, thallium flux (AID 2121); assay type: ADME
Vero = Vero cell cytotoxicity, cytotoxicity control for flavivirus capping enzyme inhibitors (AID 588742); assay type: functional; details: Chlorocebus sabaeus
[6] = biological target: T5, Probable nicotinate-nucleotide adenylyltransferase (Staphylococcus aureus (strain N315), UniProt P65502); assay type: functional, Staphylococcus aureus subsp. aureus N315;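 on IC50 Mean: confirmatory dose-response retesting of NadD inhibitor hits first found in an ultra-high-throughput screen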
T5 sequence (P65502 whole entry): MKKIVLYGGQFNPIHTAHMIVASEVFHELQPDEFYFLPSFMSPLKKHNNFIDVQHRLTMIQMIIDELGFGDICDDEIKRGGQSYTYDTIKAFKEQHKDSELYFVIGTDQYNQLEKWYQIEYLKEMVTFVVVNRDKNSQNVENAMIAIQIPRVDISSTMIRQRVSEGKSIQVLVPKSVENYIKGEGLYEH

[7] = biological target: T5, Probable nicotinate-nucleotide adenylyltransferase; assay type: functional, Staphylococcus aureus subsp. aureus N315; details: read-out: IC50_Mean
[8] = biological target: SWI/SNF-related matrix-associated actin-dependent regulator of chromatin subfamily A member 2 (Homo sapiens, UniProt P51531); assay: Luminescence-based cell-based high throughput dose response assay to identify activators of the function of SWI/SNF related, matrix associated, actin dependent regulator of chromatin, subfamily a, member 2 (SMARCA2, BRM).; assay type: functional
Sequence of SWI/SNF-related matrix-associated actin-dependent regulator of chromatin subfamily A member 2 (P51531 whole entry): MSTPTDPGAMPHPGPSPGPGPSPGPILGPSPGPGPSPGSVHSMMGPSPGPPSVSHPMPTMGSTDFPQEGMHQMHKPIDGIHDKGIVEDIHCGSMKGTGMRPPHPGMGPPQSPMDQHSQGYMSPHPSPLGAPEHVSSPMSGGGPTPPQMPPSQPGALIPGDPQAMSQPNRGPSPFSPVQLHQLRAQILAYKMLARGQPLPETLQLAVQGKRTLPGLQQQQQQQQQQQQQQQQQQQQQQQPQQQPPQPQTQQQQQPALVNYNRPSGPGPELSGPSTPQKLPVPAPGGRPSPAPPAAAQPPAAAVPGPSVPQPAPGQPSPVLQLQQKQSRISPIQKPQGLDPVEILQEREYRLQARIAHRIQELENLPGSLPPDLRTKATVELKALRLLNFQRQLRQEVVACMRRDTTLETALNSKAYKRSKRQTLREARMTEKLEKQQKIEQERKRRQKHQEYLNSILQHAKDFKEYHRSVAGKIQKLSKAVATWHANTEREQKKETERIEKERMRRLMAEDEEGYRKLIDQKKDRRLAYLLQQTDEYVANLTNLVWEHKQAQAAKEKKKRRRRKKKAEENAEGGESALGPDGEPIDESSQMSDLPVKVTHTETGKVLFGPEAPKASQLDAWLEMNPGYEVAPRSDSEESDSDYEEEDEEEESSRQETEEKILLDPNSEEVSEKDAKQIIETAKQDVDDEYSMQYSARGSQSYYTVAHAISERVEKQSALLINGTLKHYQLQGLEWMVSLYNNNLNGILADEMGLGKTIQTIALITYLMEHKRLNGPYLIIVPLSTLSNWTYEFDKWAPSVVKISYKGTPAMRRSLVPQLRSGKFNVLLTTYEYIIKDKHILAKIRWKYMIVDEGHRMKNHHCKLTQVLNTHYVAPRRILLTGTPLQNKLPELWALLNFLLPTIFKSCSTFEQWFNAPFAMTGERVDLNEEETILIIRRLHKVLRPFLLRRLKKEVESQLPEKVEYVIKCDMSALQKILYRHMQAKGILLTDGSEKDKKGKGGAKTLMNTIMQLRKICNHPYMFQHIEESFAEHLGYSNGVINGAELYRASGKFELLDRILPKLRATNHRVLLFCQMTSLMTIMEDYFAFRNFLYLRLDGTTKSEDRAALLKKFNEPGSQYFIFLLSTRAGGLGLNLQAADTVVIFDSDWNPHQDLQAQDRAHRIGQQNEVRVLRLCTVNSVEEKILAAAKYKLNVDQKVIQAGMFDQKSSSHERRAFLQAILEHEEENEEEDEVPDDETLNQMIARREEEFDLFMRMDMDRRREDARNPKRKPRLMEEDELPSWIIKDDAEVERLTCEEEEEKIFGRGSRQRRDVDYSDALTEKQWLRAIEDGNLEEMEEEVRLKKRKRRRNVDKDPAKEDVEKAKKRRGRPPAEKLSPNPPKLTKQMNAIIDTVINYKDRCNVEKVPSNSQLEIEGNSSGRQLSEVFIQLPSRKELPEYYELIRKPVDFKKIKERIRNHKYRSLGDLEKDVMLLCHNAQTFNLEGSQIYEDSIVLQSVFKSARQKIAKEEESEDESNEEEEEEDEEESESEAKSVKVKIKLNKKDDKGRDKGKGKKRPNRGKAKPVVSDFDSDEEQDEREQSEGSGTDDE

[9] = Counterscreen for activators of the function of SWI/SNF related, matrix associated, actin dependent regulator of chromatin, subfamily a, member 2 (SMARCA2, BRM): Luminescence-based cell-based high throughput dose response assay to identify non-selective compounds using the VP16 reporter assay.; assay type: functional
Genome polyprotein = Genome polyprotein (Hepatitis C virus, UniProt Q2Q167); assay: HCV core protein dimerization inhibitors, dose response, biochemical, TR-FRET (AID 2159); set-up: species or system Hepacivirus hominis;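 further: blocks dimerization of HCV core protein measured by TR-FRET between tagged core106 pairs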
Sequence of Genome polyprotein (Q2Q167 whole entry): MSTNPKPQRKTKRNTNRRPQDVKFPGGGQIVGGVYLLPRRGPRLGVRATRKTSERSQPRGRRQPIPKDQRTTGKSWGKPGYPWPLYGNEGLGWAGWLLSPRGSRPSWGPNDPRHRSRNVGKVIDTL

Bcl-2-related protein A1 [10] = biological target: T6, Bcl-2-related protein A1 (Mus musculus, UniProt Q07440); assay: Bfl-1 inhibitors, primary screen, biochemical, fluorescence polarization, FITC-Bid, mouse (AID 432)
T6 sequence (Q07440 whole entry): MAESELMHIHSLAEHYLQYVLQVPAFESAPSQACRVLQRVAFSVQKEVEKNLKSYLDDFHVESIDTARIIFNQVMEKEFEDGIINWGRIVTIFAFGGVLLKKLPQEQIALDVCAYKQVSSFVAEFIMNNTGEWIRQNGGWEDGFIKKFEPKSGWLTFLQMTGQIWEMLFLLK

SUMO-activating enzyme [11] = biological target: T7, SUMO-activating enzyme (Homo sapiens, UniProt Q9UBT2); assay: SUMOylation inhibitor hit validation, confirmation, SUMOylation inhibitor project, biochemical, AlphaScreen (AID 2018); assay type: functional
T7 sequence (Q9UBE0 whole entry): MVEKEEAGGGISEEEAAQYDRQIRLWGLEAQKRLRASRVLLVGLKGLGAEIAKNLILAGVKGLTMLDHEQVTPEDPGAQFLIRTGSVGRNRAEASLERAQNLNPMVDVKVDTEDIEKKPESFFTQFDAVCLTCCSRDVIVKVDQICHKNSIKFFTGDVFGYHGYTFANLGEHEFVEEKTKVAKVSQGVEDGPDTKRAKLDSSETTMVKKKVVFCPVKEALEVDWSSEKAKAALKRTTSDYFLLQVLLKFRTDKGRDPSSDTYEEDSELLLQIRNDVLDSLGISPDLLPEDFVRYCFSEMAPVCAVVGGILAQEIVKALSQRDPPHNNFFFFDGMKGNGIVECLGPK
T7 sequence (Q9UBT2 whole entry): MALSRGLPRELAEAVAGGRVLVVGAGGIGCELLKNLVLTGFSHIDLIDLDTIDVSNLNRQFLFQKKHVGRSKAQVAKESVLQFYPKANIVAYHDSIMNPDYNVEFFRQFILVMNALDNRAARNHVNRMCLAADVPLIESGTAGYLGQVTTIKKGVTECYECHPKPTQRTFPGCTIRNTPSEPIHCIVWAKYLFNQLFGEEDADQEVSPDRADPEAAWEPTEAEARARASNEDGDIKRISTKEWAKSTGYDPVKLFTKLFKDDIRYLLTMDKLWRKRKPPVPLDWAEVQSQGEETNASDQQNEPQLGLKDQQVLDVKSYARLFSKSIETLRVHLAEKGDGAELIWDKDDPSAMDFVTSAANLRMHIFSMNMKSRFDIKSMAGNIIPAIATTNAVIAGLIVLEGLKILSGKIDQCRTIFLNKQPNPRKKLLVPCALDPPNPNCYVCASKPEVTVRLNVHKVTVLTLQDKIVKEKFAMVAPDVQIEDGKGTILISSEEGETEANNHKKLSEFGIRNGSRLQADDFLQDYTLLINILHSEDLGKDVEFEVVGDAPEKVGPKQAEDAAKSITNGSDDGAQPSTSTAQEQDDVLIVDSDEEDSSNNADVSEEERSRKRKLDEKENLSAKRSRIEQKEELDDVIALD

SUMO-activating enzyme [12] = biological target: T7, SUMO-activating enzyme; assay: inhibitors of in vitro SUMOylation cascade, primary screen, biochemical, HTRF, uHTS (AID 2006); assay type: protein-complex assay
Bcl-2-related protein A1 [13] = biological target: T6, Bcl-2-related protein A1; assay: Bfl-1 inhibitors blocking BH3 peptide binding, confirmation, biochemical, TR-FRET, mouse Bfl-1 (AID 621);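 further: TR-FRET binding of GST-Bfl-1 to FITC-labelled Bid peptide via terbium antibody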
fMet-Leu-Phe receptor = fMet-Leu-Phe receptor (Homo sapiens, UniProt P21462); assay: FPR ligands, dose response (AID 519); assay type: functional
[14] = biological target: Ubiquitin carboxyl-terminal hydrolase BAP1 (Homo sapiens, UniProt Q92560); assay: BAP1 deubiquitinase inhibitors, dose response, biochemical (AID 714); assay type: functional
Sequence of Ubiquitin carboxyl-terminal hydrolase BAP1 (Q92560 whole entry): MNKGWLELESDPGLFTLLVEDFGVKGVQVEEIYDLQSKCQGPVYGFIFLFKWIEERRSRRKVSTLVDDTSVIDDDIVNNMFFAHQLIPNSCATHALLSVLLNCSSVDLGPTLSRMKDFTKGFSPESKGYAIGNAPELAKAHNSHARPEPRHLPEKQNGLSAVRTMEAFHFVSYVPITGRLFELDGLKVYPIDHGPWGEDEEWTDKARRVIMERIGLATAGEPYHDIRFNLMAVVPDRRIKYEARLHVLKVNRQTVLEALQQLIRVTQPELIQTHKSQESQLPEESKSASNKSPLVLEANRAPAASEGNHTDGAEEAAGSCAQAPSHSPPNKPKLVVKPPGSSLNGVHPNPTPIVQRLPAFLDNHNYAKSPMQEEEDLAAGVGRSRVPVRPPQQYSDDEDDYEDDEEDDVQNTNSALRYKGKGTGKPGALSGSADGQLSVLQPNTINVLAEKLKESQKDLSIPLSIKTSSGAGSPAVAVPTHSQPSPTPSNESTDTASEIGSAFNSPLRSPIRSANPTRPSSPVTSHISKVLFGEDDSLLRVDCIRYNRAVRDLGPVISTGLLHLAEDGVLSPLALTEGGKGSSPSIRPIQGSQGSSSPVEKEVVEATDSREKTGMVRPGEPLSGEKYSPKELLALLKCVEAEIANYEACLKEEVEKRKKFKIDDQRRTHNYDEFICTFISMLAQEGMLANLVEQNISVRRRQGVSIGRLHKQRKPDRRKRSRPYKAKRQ

[15] = Luminescent dose response cell-based high throughput screening assay for inhibitors of the Janus kinase 2 mutant JAK2V617F. [Related pubchem assays: 1446 (Primary screen.), 1521 (Confirmation assay.), 1486 (Counter screen.)]; assay type: functional
[16] = microbe, parasite or virus in culture; assay type: functional; details: Mycobacterium tuberculosis
Jurkat = assay: antigen receptor-induced NF-kB inhibitors, dose response, Jurkat, luciferase reporter, luminescence, B- and T-cell (AID 489004); assay type: functional, cell-based; details: Homo sapiens;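 further: NF-kB luciferase reporter Jurkat cells stimulated with PMA plus ionomycin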
[17] = cytotoxicity in HEK-293T NF-kB-Luc cells, dose response, cytotoxicity control for B/T-cell NF-kB inhibitor project, cell-based, uHTS hits (AID 489019); assay type: functional;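 further: IC50 reflects cytotoxicity as loss of cell viability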
Paired box protein Pax-8 = Paired box protein Pax-8 (Homo sapiens, UniProt Q06710); assay: inhibitors of PAX8-driven TPO luciferase reporter, dose response, RMG-I cells, cherry-pick (AID 687027); assay type: functional, cell-based;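 further: luciferase reporter driven by Pax8 target thyroperoxidase promoter measured by SteadyGlo luminescence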
Sequence of Paired box protein Pax-8 (Q06710 whole entry): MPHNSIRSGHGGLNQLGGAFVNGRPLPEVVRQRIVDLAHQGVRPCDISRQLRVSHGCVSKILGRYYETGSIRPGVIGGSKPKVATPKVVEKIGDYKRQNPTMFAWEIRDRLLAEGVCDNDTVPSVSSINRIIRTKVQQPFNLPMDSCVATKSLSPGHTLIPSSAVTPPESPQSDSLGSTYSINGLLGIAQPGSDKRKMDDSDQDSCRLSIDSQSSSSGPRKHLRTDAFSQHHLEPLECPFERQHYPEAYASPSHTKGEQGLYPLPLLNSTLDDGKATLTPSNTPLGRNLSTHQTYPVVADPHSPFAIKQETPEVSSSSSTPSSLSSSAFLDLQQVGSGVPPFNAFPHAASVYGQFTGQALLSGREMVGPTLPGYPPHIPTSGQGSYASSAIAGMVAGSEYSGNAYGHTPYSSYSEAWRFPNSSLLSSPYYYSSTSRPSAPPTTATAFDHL

[18] = non-specific cell cytotoxicity, dose response, cytotoxicity control for PAX8 inhibitor project, plate reader, dry powder samples (AID 743021); assay type: functional, cell-based
14-3-3 protein gamma = 14-3-3 protein gamma (Homo sapiens, UniProt P61981); assay: modulators of 14-3-3 gamma client binding – dose response (AID 711); assay type: functional
Sequence of 14-3-3 protein gamma (P61981 whole entry): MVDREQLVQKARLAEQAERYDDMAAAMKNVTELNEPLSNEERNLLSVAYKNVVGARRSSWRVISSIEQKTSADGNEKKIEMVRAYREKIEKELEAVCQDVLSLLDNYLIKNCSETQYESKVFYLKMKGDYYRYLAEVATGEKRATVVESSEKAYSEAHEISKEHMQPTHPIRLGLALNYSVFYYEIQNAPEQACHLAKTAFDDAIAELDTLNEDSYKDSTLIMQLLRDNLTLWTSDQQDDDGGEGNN

## COc1ccc(N2CC(=O)C(c3nc(-c4ccccc4)cs3)=C2N)cc1
[1]
  IC50: 24.7 µM (not active)
[2]
  IC50: 13.4 µM (not active)

## CCC(=O)Nc1c(C#N)c2nc3ccccc3nc2n1-c1ccc(C)cc1
[3]
  IC50: > 100 µM (not active)

## Cc1ccc(-c2cc(O)[nH]n2)c(C)c1
Leucine aminopeptidase
  IC50: < 1 µM (active)
Aspartyl aminopeptidase
  IC50: > 73.5 µM (not active)
Procathepsin L
  IC50: > 59.6 µM (not active)
[4]
  AC50: 2.53 µM (active)
Protein RecA
  EC50: 0.502 µM (active)

## O=Cc1ccc(OC2C=CC(C#Cc3ccccc3)OC2CO)cc1 (configuration not stated)
Cytochrome P450 2C19
  AC50: 0.631 µM (inconclusive)
Cytochrome P450 3A4
  AC50: 3.98 µM (inconclusive)

## O=C1NC(=S)NC(=O)C1=NNc1ccc(S(=O)(=O)N2CCc3ccccc32)cc1
[5]
  EC50: 0.62 µM (active)
Vero
  CC50: > 20 µM (active)
[6]
  IC50: 8.57 µM (active)
[7]
  IC50: 62.4 µM (active)
[8]
  EC50: > 91.2 µM (inactive)
[9]
  EC50: > 91.2 µM (inactive)

## Cc1sccc1C1C(C#N)=C(N)SC(N)=C1C#N
Genome polyprotein
  IC50: > 49.8 µM (not active)

## Cc1ccccc1Nc1cc2ccccc2c(O)n1
Bcl-2-related protein A1 [10]
  IC50: 22.4 µM (active)
SUMO-activating enzyme [11]
  IC50: 1.84 µM (active)
SUMO-activating enzyme [12]
  IC50: 4.3 µM (active)
Bcl-2-related protein A1 [13]
  IC50: > 100 µM (not active)
[4]
  AC50: 41.9 µM (inconclusive)
Protein RecA
  EC50: 0.616 µM (active)
fMet-Leu-Phe receptor
  Ki: > 66.7 µM (inactive)

## Cc1sc(NC(=O)CSc2nnc(-c3ccccc3)o2)c(C#N)c1C
[14]
  IC50: 44.8 µM (not active)

## Cc1ccc(Cn2ccs/c2=N\C(=O)CCl)cc1
[15]
  IC50: 0.744 µM (active)
[16]
  CC50: 0.299 µM (active)
Jurkat
  IC50: 0.49 µM (active)
[17]
  IC50: > 80 µM (inactive)
Paired box protein Pax-8
  AC50: 1.31 µM (active)
[18]
  AC50: 3.73 µM (active)

## CN1CCc2c(sc(/N=C/c3ccco3)c2C(N)=O)C1
14-3-3 protein gamma
  IC50: > 50 µM (not active)
